Source: US7112555B1, “Use of glycuronic polysaccharides and oligosaccharides as phytosanitary products and/or fertiliser” (Centre National de la Recherche Scientifique, priority 1999, dated 2006)

Legend:
[1] = tested on: xyloglucan endotransglycolase; test: Xyloglucan endotransglycolase (XET) response induced in protoplasts of Rubus; type: cell-based; conditions: 50 nM, in 20 minutes
Experimental: Experimental elicitation conditions. 2.10^6 protoplasts in 1 ml Tris-HCl buffer (pH 4.8) are incubated in the presence, or not, of an elicitor (50 nM) or of a hormone (50 nM): mannuronan oligomer of DP4 or glucuronan oligomer of DP8 or gibberellin GA3. After 20, 40, 60, 100 and 120 minutes of interaction, the protoplasts are recovered by centrifugation, then subjected to enzymatic extraction.
Methodology: measurement of XET activity is carried out in the wells of microtitration plates in 4 stages. Stage 1: immobilization of the acceptor, i.e. the neoglycoprotein XXLG≈BSA. Stage 2: introduction of the reaction medium (XET enzymatic extraction (equivalent to 1 μg of proteins) substrate marked DIG, i.e. XG≈DIG in the Tris-HC1 buffer, pH=7, 25 mM). Stage 3: immunomarking according to the anti-DIG marked peroxydase sequence, anti-peroxydase marked peroxydase. Stage 4: dosage of the peroxydase activity in a citrate-phosphate buffer ([…], pH 5.5).
The peroxydase activity is measured at 492 nm. At least 3 curves of peroxydase activity are traced per experimental condition, and the experiments are carried out using 3 protoplast suspensions. The XET activity is measured by the slope (ΔA 492) of the curve deduced by linear regression from 9 peroxydase kinetics curves.

1,3β-D-glucanase = 1,3β-D-glucanase response induced in the protoplasts of Rubus; type: cell-based, Rubus fruticosus L.; conditions: for 1,3-β-D-glucanase activity (% control): elicitor 50 nM, 2.10^6 protoplasts
Experimental: (§1) Experimental conditions: (1) preparation of protoplasts from cell suspensions of Rubus fruticosus L.; (2) incubation, or not, of n samples of 2.10^6 protoplasts in the presence of “elicitors” (1,4-D-glucuronan polymers and 1,4β-D-galacturonan (400 μg/L) polymers, 1,4β-D-glucuronan oligomers of average DP 8, 1,4β-D-mannuronan oligomers of DP 4, and 1,4β-D-guluronan oligomers of DP 4 (50 nM)); (3) after 20 minutes, the protoplasts whether may be treated or not, are subjected to enzymatic extraction. 2 μg of proteins are used per enzymatic test, and per incubation period. The viability of the protoplasts is maintained at 95% for an experimental period of 6 hours; the Evans blue viability test used verifies the integrity of the plasmalemma.
Methodology: measurement of activity (1,3β-D-glucanase) is based on the calorimetric dosage (ferricyan test) of the substrate-reducing units (reduced hexamer from laminarin) released during hydrolysis. Based on the kinetics developed, curves are traced whose equations make it possible to calculate the speed of the enzymatic reaction. 2 kinetics, at least, are developed per sample, and per experimental “set”. In general, at least 8 kinematics from samples of 2 independent “sets” are developed.
Results: the enzymatic activation elicited in the protoplasts is expressed as a % of the activity in the controls.

1,4β-D-glucanase = 1,4β-D-glucanase response induced in protoplasts of Rubus; type: cell-based, Rubus fruticosus L.; conditions: elicitor 50 nM, 20 minutes, 2.10^6 protoplasts
Experimental: as §1
Experimental elicitation conditions: identical to those reported above.
Methodology: measurement of activity (1,4β-D-glucanase) is based on the calorimetric dosage (ferricyan test) described above of the substrate-reducing units (reduced cellopentaose) released during hydrolysis.

Compound	amplification factor of XET activity versus non-elicited protoplasts [1]	1,3-β-D-glucanase activity (% control) (1,3β-D-glucanase; 20 minutes)	other results
C=C1C[C@]23C[C@@]1(O)CC[C@H]2[C@@]12C=C[C@H](O)[C@](C)(C(=O)O1)[C@H]2[C@@H]3C(=O)O [GA3, gibberellin GA3, reference compound]	1.12		
glucuronan oligomer of DP8	1.62		
1,4β-D-glucuronan polymer			amplification factor of 1,3-β-D-glucanase activity in plant protoplasts (1,3β-D-glucanase; nanomolar concentration, in 20 minutes): 1.3
oligo 1,4-β-D-mannuronan of DP 4	2.12	122 % control	
oligo 1,4-β-D-guluronan of DP 4 [e]		146 % control	1,4β-D-glucanase activity (% control) (1,4β-D-glucanase): 101 % control; effectiveness of 1,3-β-D-glucanase induction among the other products tested (1,3β-D-glucanase; 50 nM, 20 minutes): most effective
